Conditions: pre-tested baboon plasma following intravenous infusion

CCCCCCCCCCNCCN[C@@]1(C)C[C@H](O[C@H]2[C@H](Oc3c4cc5cc3Oc3ccc(cc3Cl)[C@@H](O)[C@@H](NC(=O)[C@@H](CC(C)C)NC)C(=O)N[C@@H](CC(N)=O)C(=O)N[C@H]5C(=O)N[C@H]3C(=O)N[C@H](C(=O)N[C@H](C(=O)O)c5cc(O)c(CNCP(=O)(O)O)c(O)c5-c5cc3ccc5O)[C@H](O)c3ccc(c(Cl)c3)O4)O[C@H](CO)[C@@H](O)[C@@H]2O)O[C@@H](C)[C@H]1O [telavancin]
lowest concentration of telavancin determined in pre-tested baboon plasma: approximately 200 ng/ml
